Here are results for two compounds from patent publication US20140378374A1, “METHODS OF TREATMENT” (GlaxoSmithKline Intellectual Property (No.2) Limited, priority 2013, published 2014).

The test system of one data set is patients with T2D and RI. The class given is in vivo, human. As to conditions: for Model-adjusted change from baseline A1C, LS mean (SE): ANCOVA. As for the experimental part: Therapies for type 2 diabetes mellitus (T2DM) with renal impairment (RI) are limited and may require dose adjustment. This 52-week randomized, double blind, active controlled, Phase III parallel group study examined efficacy/safety of QW Albi injections (30 mg uptitrated to 50 mg if needed) vs daily Sita in patients with T2D and RI (eGFR≧15 and <90 mL/min/1.73 m^2) and A1C 7-10% on lifestyle (11% of subjects) or metformin (Met), thiazoldinedone (TZD), sulfonylureas (SU), or any combination (89% of patients). […] Primary endpoint was A1C change at week 26 for Albi vs Sita (noninferiority with subsequent superiority analysis). Eligible subjects were men or non pregnant, nonlactating women, 18 years of age or older, with a historical diagnosis of T2DM who were experiencing inadequate glycemic control on their current regimen of diet and exercise or their antidiabetic therapy of metformin, TZD, SU, or any combination of these OAD medications.

The conditions of data set [1]: each group with CKD (mild, moderate, severe); cited from earlier work.
Data set [2] concerns patients with type 2 diabetes. As to conditions: head-to-head trial; cited from earlier work.
Setting [3] is: Week 26, Moderate RI (eGFR 30-59).
The mark [4] stands for this setting: Week 26, Severe RI (eGFR 15-29).

Read-outs that look alike come from different tables or passages of the source.

In the case of `N[C@@H](CC(=O)N1CCn2c(nnc2C(F)(F)F)C1)Cc1cc(F)c(F)cc1F` [Sitagliptin, sitagliptin, reference compound], in the data set on patients with T2D and RI (Any RI (eGFR 15-89)), the “Week 26 A1C, mean” value is 7.68%. Also, the “Week 26 A1C, mean” value in the data set with patients with T2D and RI (Mild RI (eGFR 60-89 mL/min/1.73 m2)) was 7.50%. In the data set with patients with T2D and RI (Moderate RI (eGFR 30-59)), the “Week 26 A1C, mean” value is given as 7.91%. In the data set with patients with T2D and RI (Severe RI (eGFR 15-29)), the “Week 26 A1C, mean” value is reported as 7.67%. Also, in the data set with patients with T2D and RI (Week 26), the “A1C<7% achieved, patients” value was determined as 30.5%; the FPG change was -3.9 mg/dL; the weight change was -0.2 kg. Besides, in the data set on patients with T2D and RI (Week 26, Any RI (eGFR 15-89)), the “Model-adjusted change from baseline A1C, LS mean (SE)” value (from here on “Model-adjusted change … (SE)”) is recorded as −0.52% and the “Change from baseline A1C, mean (SD)” value is listed as −0.54%. Moreover, in the data set on patients with T2D and RI (Week 26, Mild RI (eGFR 60-89)), the “Model-adjusted change … (SE)” value is −0.67% and the “Change from baseline A1C, mean (SD)” value was −0.66%. In addition, in the data set with patients with T2D and RI (setting [3]), the “Model-adjusted change … (SE)” value is listed as −0.31% and the “Change from baseline A1C, mean (SD)” value is −0.37%. In addition, in the data set on patients with T2D and RI (setting [4]), the “Model-adjusted change … (SE)” value is given as −0.61% and the “Change from baseline A1C, mean (SD)” value was −0.65%. In the data set with patients with T2D and RI (both, human, in vivo, 26 weeks), the “Adverse Event rate: diarrhea” value was found to be 6.1%, the “Adverse Event rate: nausea” value was determined as 2.8%, the “Adverse Event rate: vomiting” value was found to be 0.8% and the Hypoglycemia rate was 13.4%. In the data set with patients with T2D and RI (both, human, in vivo, 26 weeks), the “Hypoglycemia, severe (number)” value amounted to 2; the “Injection site reaction rate” value stood at 2.8%; the “On-therapy adverse event: Constipation” value was 5 (2.0) n (%); the “On-therapy adverse event: Diarrhea” value was 15 (6.1) n (%). Besides, in the data set on patients with T2D and RI (both, human, in vivo, 26 weeks), the “On-therapy adverse event: Hypertension” value was 15 (6.1) n (%), the “On-therapy adverse event: Nasopharyngitis” value is recorded as 16 (6.5) n (%), the “On-therapy adverse event: Upper respiratory tract infection” value is on record as 16 (6.5) n (%) and the “On-therapy adverse event: Urinary tract infection” value is listed as 15 (6.1) n (%).
With `CCCCCCCCCCCCCCCC(=O)N[C@@H](CCC(=O)NCCCC[C@H](NC(=O)[C@H](C)NC(=O)[C@H](C)NC(=O)[C@H](CCC(N)=O)NC(=O)CNC(=O)[C@H](CCC(=O)O)NC(=O)[C@H](CC(C)C)NC(=O)[C@H](Cc1ccc(O)cc1)NC(=O)[C@H](CO)NC(=O)[C@H](CO)NC(=O)[C@@H](NC(=O)[C@H](CC(=O)O)NC(=O)[C@H](CO)NC(=O)[C@@H](NC(=O)[C@H](Cc1ccccc1)NC(=O)[C@@H](NC(=O)CNC(=O)[C@H](CCC(=O)O)NC(=O)[C@H](C)NC(=O)[C@@H](N)Cc1cnc[nH]1)[C@@H](C)O)[C@@H](C)O)C(C)C)C(=O)N[C@@H](CCC(=O)O)C(=O)N[C@@H](Cc1ccccc1)C(=O)N[C@H](C(=O)N[C@@H](C)C(=O)N[C@@H](Cc1c[nH]c2ccccc12)C(=O)N[C@@H](CC(C)C)C(=O)N[C@H](C(=O)N[C@@H](CCCNC(=N)N)C(=O)NCC(=O)N[C@@H](CCCNC(=N)N)C(=O)NCC(=O)O)C(C)C)[C@@H](C)CC)C(=O)O` [liraglutide, reference compound], in data set [1], the “exposure vs group with normal renal function” value was “reduced exposure”. In addition, in data set [2], the nausea, percentage is recorded as 29% and the vomiting, percentage was 9%.
